Laboratory results as given in patent US8546376B2, “Pharmaceutical compounds” (Almac Discovery Limited, priority 2009, dated 2013).
pIC50: −log10 of the molar value. Counter-ions that a name gives are not always drawn.

Experiments:
Format in all cases: biochemical
AKT1 = molecular target: T1, AKT1 (Homo sapiens, UniProt P31749); test: AKT Kinase Assay (IMAP fluorescent polarisation) vs AKT1; conditions: activated AKT1, FAM Crosstide substrate
T1 construct: purchased SignalChem
How it was run: (§1)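 IC50 values came from non-linear regression of % inhibition relative to vehicle, measured by IMAP fluorescence polarisation (485/528 nm) after a 1 h room-temperature reaction of FAM-Crosstide and ATP. Each activated isoform was first exposed to compound for 45 min across fourteen half-log doses.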

AKT3 = molecular target: T2, AKT3 (Homo sapiens, UniProt Q9Y243); test: AKT Kinase Assay (IMAP fluorescent polarisation) vs AKT3; conditions: activated AKT3, FAM Crosstide substrate
T2 construct: purchased SignalChem
How it was run: as §1

AKT2 = molecular target: T3, AKT2 (Homo sapiens, UniProt P31751); test: AKT Kinase Assay (IMAP fluorescent polarisation) vs AKT2; conditions: activated AKT2, FAM Crosstide substrate
T3 construct: purchased SignalChem
How it was run: as §1

T1 sequence (P31749 whole entry): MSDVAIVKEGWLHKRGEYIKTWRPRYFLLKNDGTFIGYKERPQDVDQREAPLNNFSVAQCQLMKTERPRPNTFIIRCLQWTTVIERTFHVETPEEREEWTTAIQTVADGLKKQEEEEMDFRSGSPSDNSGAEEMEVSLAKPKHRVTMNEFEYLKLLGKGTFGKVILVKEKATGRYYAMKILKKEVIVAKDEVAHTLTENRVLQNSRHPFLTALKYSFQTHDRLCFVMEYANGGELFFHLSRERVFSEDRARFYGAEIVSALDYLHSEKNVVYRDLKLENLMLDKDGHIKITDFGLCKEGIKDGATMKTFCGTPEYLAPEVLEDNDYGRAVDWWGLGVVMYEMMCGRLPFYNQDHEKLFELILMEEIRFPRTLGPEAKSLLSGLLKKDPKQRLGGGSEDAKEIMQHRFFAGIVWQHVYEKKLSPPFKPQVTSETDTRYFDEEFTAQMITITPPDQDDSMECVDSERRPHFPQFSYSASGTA
T2 sequence (Q9Y243 whole entry): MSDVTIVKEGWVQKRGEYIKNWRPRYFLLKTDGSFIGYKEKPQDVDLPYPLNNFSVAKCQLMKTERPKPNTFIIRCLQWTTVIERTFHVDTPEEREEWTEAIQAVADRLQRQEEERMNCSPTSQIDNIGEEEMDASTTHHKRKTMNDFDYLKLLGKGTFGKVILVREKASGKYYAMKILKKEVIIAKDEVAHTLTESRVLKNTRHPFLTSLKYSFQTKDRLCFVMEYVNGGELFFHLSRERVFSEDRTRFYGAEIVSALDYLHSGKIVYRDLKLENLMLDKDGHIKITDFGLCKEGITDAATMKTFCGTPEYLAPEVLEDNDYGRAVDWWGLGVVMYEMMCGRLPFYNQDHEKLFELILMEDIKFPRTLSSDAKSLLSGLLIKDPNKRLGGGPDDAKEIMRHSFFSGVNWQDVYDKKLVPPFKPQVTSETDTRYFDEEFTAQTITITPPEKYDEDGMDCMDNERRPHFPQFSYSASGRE
T3 sequence (P31751 whole entry): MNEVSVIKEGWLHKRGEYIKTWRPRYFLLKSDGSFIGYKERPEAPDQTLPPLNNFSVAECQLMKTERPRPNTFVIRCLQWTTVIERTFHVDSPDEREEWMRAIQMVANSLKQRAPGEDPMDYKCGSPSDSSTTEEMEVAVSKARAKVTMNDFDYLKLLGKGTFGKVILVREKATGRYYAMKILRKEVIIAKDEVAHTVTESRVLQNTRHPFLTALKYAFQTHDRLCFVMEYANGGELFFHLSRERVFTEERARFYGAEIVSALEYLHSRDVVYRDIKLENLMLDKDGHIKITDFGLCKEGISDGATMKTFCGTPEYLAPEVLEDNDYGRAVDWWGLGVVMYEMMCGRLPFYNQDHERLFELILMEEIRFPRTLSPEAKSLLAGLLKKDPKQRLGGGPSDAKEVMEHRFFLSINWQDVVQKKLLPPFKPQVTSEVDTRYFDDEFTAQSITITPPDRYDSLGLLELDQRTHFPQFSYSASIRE

pIC50 (AKT1) | pIC50 (AKT3) | pIC50 (AKT2) | Compound
≥ 6.00 | 5.00 to 6.00 | ≥ 6.00 | CC(C)n1cc2ccc3c(=O)c(-c4ccc(C5(N)CCC5)cc4)c(-c4ccccc4)oc3c2n1 [Example 84, 7-[4-(1-Amino-cyclobutyl)-phenyl]-2-isopropyl-8-phenyl-2H-9-oxa-1,2-diaza-cyclopenta[a]naphthalen-6-one hydrochloride]
≥ 6.00 | 5.00 to 6.00 | ≥ 6.00 | NC1(c2ccc(-c3c(-c4ccccc4)oc4c(ccc5cnn(CCO)c54)c3=O)cc2)CCC1 [Example 85, 7-[4-(1-Amino-cyclobutyl)-phenyl]-1-(2-hydroxy-ethyl)-8-phenyl-1H-9-oxa-1,2-diaza-cyclopenta[a]naphthalen-6-one hydrochloride]
≥ 6.00 | < 5.00 | ≥ 6.00 | NC1(c2ccc(-c3c(-c4ccccc4)oc4c(ccc5nn[nH]c54)c3=O)cc2)CCC1 [Example 88, 7-[4-(1-Amino-cyclobutyl)-phenyl]-8-phenyl-1H-9-oxa-1,2,3-triaza-cyclopenta[a]naphthalen-6-one]
≥ 6.00 | ≥ 6.00 | ≥ 6.00 | Cc1nc2ccc3c(=O)c(-c4ccc(C5(N)CCC5)cc4)c(-c4ccccc4)oc3c2n1C [Example 90, 7-[4-(1-Amino-cyclobutyl)-phenyl]-1,2-dimethyl-8-phenyl-1H-chromeno[7,8-d]imidazol-6-one]
≥ 6.00 | < 5.00 | ≥ 6.00 | NC1(c2ccc(-c3c(-c4ccccc4)oc4c(ccc5[nH]c(=O)oc54)c3=O)cc2)CCC1 [Example 91, 7-[4-(1-Amino-cyclobutyl)-phenyl]-8-phenyl-3H-chromeno[7,8-d]oxazole-2,6-dione]
≥ 6.00 | ≥ 6.00 | ≥ 6.00 | Cn1cnc2ccc3c(=O)c(-c4ccc(C5(N)CCC5)cc4)c(-c4ccccc4)oc3c21 [Example 96, 7-[4-(1-Amino-cyclobutyl)-phenyl]-1-methyl-8-phenyl-1H-chromeno[7,8-d]imidazol-6-one]
≥ 6.00 | < 5.00 | 5.00 to 6.00 | NC1(c2ccc(-c3c(-c4ccccc4)oc4c(ccc5c(I)n[nH]c54)c3=O)cc2)CCC1 [Example 97, 7-[4-(1-Amino-cyclobutyl)-phenyl]-3-iodo-8-phenyl-1H-9-oxa-1,2-diaza-cyclopenta[a]naphthalen-6-one hydrochloride]
≥ 6.00 | ≥ 6.00 | ≥ 6.00 | Cn1cc(-c2nccc3c(=O)c(-c4ccc(C5(N)CCC5)cc4)c(-c4ccccc4)oc23)cn1 [Example 101, 3-[4-(1-Amino-cyclobutyl)-phenyl]-8-(1-methyl-1H-pyrazol-4-yl)-2-phenyl-pyrano[2,3-c]pyridin-4-one hydrochloride]
≥ 6.00 | 5.00 to 6.00 | 5.00 to 6.00 | N#CCOc1ccc2c(=O)c(-c3ccc(C4(N)CCC4)cc3)c(-c3ccccc3)oc2c1Br [Example 110, 2-(3-(4-(1-aminocyclobutyl)phenyl)-8-bromo-4-oxo-2-phenyl-4H-chromen-7-yloxy)acetonitrile]
≥ 6.00 | 5.00 to 6.00 | 5.00 to 6.00 | N#CCn1ncc2ccc3c(=O)c(-c4ccc(C5(N)CCC5)cc4)c(-c4ccccc4)oc3c21 [Example 111, 2-(7-(4-(1-aminocyclobutyl)phenyl)-6-oxo-8-phenylpyrano[3,2-g]indazol-1(6H)-v1)acetonitrile]

Continued, compound first:

Compound | pIC50 (AKT1) | pIC50 (AKT3) | pIC50 (AKT2)
NC1(c2ccc(-c3c(-c4ccccc4)oc4c(ccc5cn(CCO)nc54)c3=O)cc2)CCC1 [Example 86, 7-[4-(1-Amino-cyclobutyl)-phenyl]-2-(2-hydroxy-ethyl)-8-phenyl-2H-9-oxa-1,2-diaza-cyclopenta[a]naphthalen-6-one hydrochloride] | ≥ 6.00 | 5.00 to 6.00 | ≥ 6.00
NC1(c2ccc(-c3c(-c4ccccc4)oc4c(ccc5[nH]c(=O)[nH]c54)c3=O)cc2)CCC1 [Example 87, 7-[4-(1-Amino-cyclobutyl)-phenyl]-8-phenyl-1,3-dihydro-chromeno[7,8-d]imidazole-2,6-dione] | ≥ 6.00 | < 5.00 | ≥ 6.00
Cc1nc2ccc3c(=O)c(-c4ccc(C5(N)CCC5)cc4)c(-c4ccccc4)oc3c2[nH]1 [Example 89, 7-[4-(1-Amino-cyclobutyl)-phenyl]-2-methyl-8-phenyl-1H-chromeno[7,8-d]imidazol-6-one] | ≥ 6.00 | 5.00 to 6.00 | ≥ 6.00
NC1(c2ccc(-c3c(-c4ccccc4)oc4c5c(ccc4c3=O)NC(=O)CO5)cc2)CCC1 [Example 92, 7-[4-(1-Amino-cyclobutyl)-phenyl]-6-phenyl-1H-4,5-dioxa-1-aza-phenanthrene-2,8-dione] | ≥ 6.00 | 5.00 to 6.00 | ≥ 6.00
Nc1ccc2c(=O)c(-c3ccc(C4(N)CCC4)cc3)c(-c3ccccc3)oc2c1O [Example 93, 7-Amino-3-[4-(1-amino-cyclobutyl)-phenyl]-8-hydroxy-2-phenyl-chromen-4-one] | ≥ 6.00 | < 5.00 | 5.00 to 6.00
NC1(c2ccc(-c3c(-c4ccccc4)oc4c(ccc5nc(C(F)(F)F)[nH]c54)c3=O)cc2)CCC1 [Example 94, 7-[4-(1-Amino-cyclobutyl)-phenyl]-8-Phenyl-2-trifluoromethyl-1H-chromeno[7,8-d]imidazol-6-one] | ≥ 6.00 | < 5.00 | 5.00 to 6.00
NC1(c2ccc(-c3c(-c4ccccc4)oc4c(ccc5nc(C(F)F)[nH]c54)c3=O)cc2)CCC1 [Example 95, 7-[4-(1-Amino-cyclobutyl)-phenyl]-2-difluoromethyl-8-phenyl-1H-chromeno[7,8-d]imidazol-6-one] | ≥ 6.00 | 5.00 to 6.00 | ≥ 6.00
CCc1nn(C)c2c1ccc1c(=O)c(-c3ccc(C4(N)CCC4)cc3)c(-c3ccccc3)oc12 [Example 98, 7-[4-(1-Amino-cyclobutyl)-phenyl]-3-ethyl-1-methyl-8-phenyl-1H-9-oxa-1,2-diaza-cyclopenta[a]naphthalen-6-one hydrochloride] | ≥ 6.00 | 5.00 to 6.00 | ≥ 6.00
NC1(c2ccc(-c3c(-c4ccccc4)oc4c(ccc5c(Cl)n[nH]c54)c3=O)cc2)CCC1 [Example 99, 7-[4-(1-Amino-cyclobutyl)-phenyl]-3-chloro-8-phenyl-1H-9-oxa-1,2-diaza-cyclopenta[a]naphthalen-6-one hydrochloride] | ≥ 6.00 | 5.00 to 6.00 | 5.00 to 6.00
Cn1nc(Cl)c2ccc3c(=O)c(-c4ccc(C5(N)CCC5)cc4)c(-c4ccccc4)oc3c21 [Example 100, 7-[4-(1-Amino-cyclobutyl)-phenyl]-3-chloro-1-methyl-8-phenyl-1H-9-oxa-1,2-diaza-cyclopenta[a]naphthalen-6-one hydrochloride] | ≥ 6.00 | 5.00 to 6.00 | 5.00 to 6.00
NC1(c2ccc(-c3c(-c4ccccc4)oc4c(-n5cnnc5)nccc4c3=O)cc2)CCC1 [Example 102, 3-[4-(1-Amino-cyclobutyl)-phenyl]-2-phenyl-8-[1,2,4]triazol-4-yl-pyrano[2,3-c]pyridin-4-one hydrochloride] | ≥ 6.00 | < 5.00 | 5.00 to 6.00
NC1(c2ccc(-c3c(-c4ccccc4)oc4c(Oc5ccccn5)nccc4c3=O)cc2)CCC1 [Example 103, 3-[1-(1-Amino-cyclobutyl)-phenyl]-2-phenyl-8-(pyridin-2-yloxy)-pyrano[2,3-c]pyridin-4-one hydrochloride] | ≥ 6.00 | < 5.00 | 5.00 to 6.00
NC1(c2ccc(-c3c(-c4ccccc4)oc4c(-n5ccccc5=O)nccc4c3=O)cc2)CCC1 [Example 104, 3-[4-(1-Amino-cyclobutyl)-phenyl]-8-(2-oxo-2H-pyridin-1-yl)-2-phenyl-pyrano[2,3-c]pyridin-4-one hydrochloride] | 5.00 to 6.00 | < 5.00 | < 5.00
C#Cc1cccc2c(=O)c(-c3ccc(C4(N)CCC4)cc3)c(-c3ccccc3)oc12 [Example 105, 3-[4-(1-Amino-cyclobutyl)-phenyl]-8-ethynyl-2-phenyl-chromen-4-one] | ≥ 6.00 | 5.00 to 6.00 | 5.00 to 6.00
NC1(c2ccc(-c3c(-c4ccccc4)oc4c(-c5c[nH]nn5)cccc4c3=O)cc2)CCC1 [Example 106, 3-[4-(1-Amino-cyclobutyl)-phenyl]-2-phenyl-8-(1H-[1,2,3]triazol-4-yl)-chromen-4-one] | ≥ 6.00 | ≥ 6.00 | ≥ 6.00
NC1(c2ccc(-c3c(-c4ccccc4)oc4c(C(=O)O)cccc4c3=O)cc2)CCC1 [Example 107, 3-[4-(1-Amino-cyclobutyl)-phenyl]-4-oxo-2-phenyl-4H-chromene-8-carboxylic acid. trifluoro-acetic acid] | 5.00 to 6.00 | < 5.00 | < 5.00
NC1(c2ccc(-c3c(-c4ccccc4)oc4c(CN5CC(F)C5)cccc4c3=O)cc2)CCC1 [Example 108, 3-[4-(1-Amino-cyclobutyl)-phenyl]-8-(3-fluoro-azetidin-1-ylmethyl)-2-phenyl-chromen-4-one] | 5.00 to 6.00 | < 5.00 | ≥ 6.00
NC1(c2ccc(-c3c(-c4ccccc4)oc4c5c(ccc4c3=O)OCC(=O)N5)cc2)CCC1 [Example 109, 8-(4-(1-aminocyclobutyl)phenyl)-9-phenylchromeno[7,8-b][1.4]oxazine-2,7(1H,3H)-dione] | ≥ 6.00 | 5.00 to 6.00 | 5.00 to 6.00
CN1C(=O)COc2c1ccc1c(=O)c(-c3ccc(C4(N)CCC4)cc3)c(-c3ccccc3)oc21 [Example 112, 8-(4-(1-aminocyclobutyl)phenyl)-4-methyl-9-phenylchromeno[8,7-b][1,4]oxazine-3,7(2H,4H)-dione] | ≥ 6.00 | 5.00 to 6.00 | ≥ 6.00
